The subject of the experiment is breast cancer cells metastasized to lung. As to the kind of experiment: Imaging, MDA-MB 231 metastatic model. Type of experiment: in vivo, mice. Particulars: 2 nmol, 2 h. How it is done: One million (1×106) of either L1210A or MDA-MB231 cancer cells per mouse (cancer cells/mouse) were administered via tail vein injection into the mice. Tumor growth was monitored every other day using a Caliper IVIS Lumina II Imaging Station with Living Image 4.0 software (PerkinElmer Inc.).

In the case of `CC1(C)C(/C=C/C2=C(Oc3ccc(C[C@H](NC(=O)c4ccc(NCc5cnc6nc(N)[nH]c(=O)c6n5)cc4)C(=O)[O-])cc3)C(=C/C=C3\N(CCCCS(=O)(=O)[O-])c4ccc(S(=O)(=O)[O-])cc4C3(C)C)/CCC2)=[N+](CCCCS(=O)(=O)[O-])c2ccc(S(=O)(=O)[O-])cc21.[H+].[H+].[H+].[H+]` [OTL-0038, Pte-Tyr-S0456], the accumulation result is given as “mainly accumulated in the breast cancer cells metastasized to lung”.
